Laboratory results reported in patent publication US11065211B2, “Isoxylitones mediated neurogenesis” (priority 2018, dated 2021).

What was measured:
Type in all cases: cell-based, rat
[1] = tested on: cortical cells and hippocampal cells; assay: MTT assay, in vitro screening of compounds for cell proliferation activity; details: 24 hrs treatment
Excerpt: The Tetrazolium MTT [3-(4, 5-dimethyl thiazol-2-yl)-2,5-diphenyl tetrazolium bromide] Assay: MTT assay was used to screen various compounds for their proliferating effect on cortical cells and hippocampal cells. The principle of MTT test is based on the ability of live cells to form insoluble purple formazan product from the breakdown of the water soluble yellow tetrazolium salt by mitochondrial enzyme succinate dehydrogenase (Mosmann, 1983). The resulting intracellular purple formazan can quantify by spectrophotometric means. The MTT Cell Proliferation Assay measures the cell proliferation rate and conversely, when metabolic events lead to apoptosis or necrosis, the reduction in cell viability.
The density of the cortical and hippocampal cells was adjusted at the density 2×10^5 cells/mL in complete DMEM medium (5% FBS). The cells (5000/well) were then plated in 96-wells plate and incubated for 24 hrs at 37° C. with 5% CO2. Following 24 hrs incubation, media was removed and 100 μL of each test compounds in DMEM media (5% FBS) were added. […] The culture plates were re-incubated for 24 hrs at 37° C. in 5% CO2. Cells treated with 0.1% DMSO in complete media (5% FBS) were used as vehicle controls. […] The absorbance was read at 495 nm on spectrophotometer. […] The percent rate of proliferation was calculated using the following formula, % rate of proliferation={(At−Ab)/(Ac−Ab)}×100

Cocul-CTX cells = assay: AlamarBlue proliferation assay; details: 24 h, FIG. 4
Procedure: (§1) Wistar rats (150-200 gm) were used to isolate bone marrow (BM). Rats were sacrificed and their femurs were removed aseptically. The bone marrow (BM) was flushed from the shaft of the bone by clipping of the epiphysial ends and flushing using a 26-gauge needle with ˜2 ml of Dulbecco's Modified Eagle's medium (DMEM) supplemented with 5% FBS, 1% penicillin/streptomycin solution, 1% sodium pyruvate and L-glutamine. The BM was then centrifuged for 8 minutes at 1000 rpm. Following centrifugation, cell pellet was collected and 1 ml of fresh DMEM was added. The cell viability was checked using trypan blue exclusion method. The cells were then divided into three equal parts. One part was co-cultured with freshly isolated hippocampal cells in T75 cm^2 flask, 2nd with freshly isolated cortical cells and the third portion (BM cells only) was cultured as a control. The cell density for co-cultures was set at 140,000 cells/ml for each type of culture. The cultured flasks were then incubated at 37° C. and 5% CO2. After 4-5 days, floating hematopoietic cells and dead debris/tissues of hippocampus and cortex were removed and bone marrow stromal cells (BMSCs) were recovered due to their tendency to adhere. Medium was replaced after every 3 to 4 days till cells became 80-90% confluent.
(§2) AlamarBlue (AB), a water-soluble dye having resazurin salt was used to evaluate the effect of isoxylitones on the proliferation of the cultured cells. AB measures mitochondrial reductase activity of live cells. The resazurin has ability to enter the cytosol of viable cell and converted to the reduced fluorescent form resorufin by mitochondrial enzyme activity by accepting electrons from NADPH, FADH, FMNH, NADH as well as from the cytochromes. […] The amount of fluorescence produced is proportional to the number of living cells (Al-Nasiry, Geusens, Hanssens, Luyten, Pijnenborg, 2007). […] After incubation, the fluorescence intensity in each well was recorded at an excitation wavelength of 570 nm and an emission wavelength of 600 nm. The rate of cell proliferation was expressed as the relative fluorescence intensity. […] The blank media fluorescence measurement was subtracted from fluorescence measurements of cells from the same run.
(§3) Formula used to calculate the percentage reduction of AB using absorbance readings:
(§4) [formula] Where: O1=molar extinction coefficient (E) of oxidized alamarBlue® (Blue) at 570 nm O2=E of oxidized alamarBlue® at 600 nm A1=absorbance of test wells at 570 nm A2=absorbance of test wells at 600 nm P1=absorbance of positive growth control well (cells plus alamarBlue® but no test agent) at 570 nm P2=absorbance of positive growth control well (cells plus alamarBlue® but no test agent at 600 nm

Cocul-HP cells = assay: AlamarBlue proliferation assay; details: 24 h, FIG. 4
Procedure: as §1, §2, §3, §4

CC(=O)C=C1C=C(C)CC(C)(C)C1 (mixture of isomers) [isoxylitones]
activity on the cell proliferation (MTT screening) [1]: significant potent activity
highest proliferative dose (Cocul-CTX cells): 150 µg/mL
growth proliferation (Alamar blue) (Cocul-CTX cells; various doses): dose dependent growth proliferative effect
highest proliferative dose (Cocul-HP cells): 150 µg/mL
growth proliferation (Alamar blue) (Cocul-HP cells; various doses): dose dependent growth proliferative effect
